Data taken from patent US9321760B2 (Merck Patent GmbH, priority 2011, dated 2016).

What follows are compounds tested against P70S6K (T412E mutant) (Homo sapiens (Human), UniProt P23443, T412E) (assay: P70S6K enzyme assay). Conditions: 3 nM P70S6K T412E mutant, 24 μM ATP, 1 μM FITC-AHA-AKRRRLSSLRA-OH substrate peptide, 90 min at 25° C.
Format: biochemical
Method in brief: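 IC50s come from mobility-shift separation of phospho-product from FITC-AHA-AKRRRLSSLRA-OH substrate (1 μM) after the reaction was quenched with 10 mM EDTA. The reaction used 3 nM T412E-mutant enzyme and 24 μM ATP, running 90 min at 25° C in 100 mM Hepes pH 7.5 buffer.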

P70S6K (T412E mutant), sequence (P23443 whole entry T412E): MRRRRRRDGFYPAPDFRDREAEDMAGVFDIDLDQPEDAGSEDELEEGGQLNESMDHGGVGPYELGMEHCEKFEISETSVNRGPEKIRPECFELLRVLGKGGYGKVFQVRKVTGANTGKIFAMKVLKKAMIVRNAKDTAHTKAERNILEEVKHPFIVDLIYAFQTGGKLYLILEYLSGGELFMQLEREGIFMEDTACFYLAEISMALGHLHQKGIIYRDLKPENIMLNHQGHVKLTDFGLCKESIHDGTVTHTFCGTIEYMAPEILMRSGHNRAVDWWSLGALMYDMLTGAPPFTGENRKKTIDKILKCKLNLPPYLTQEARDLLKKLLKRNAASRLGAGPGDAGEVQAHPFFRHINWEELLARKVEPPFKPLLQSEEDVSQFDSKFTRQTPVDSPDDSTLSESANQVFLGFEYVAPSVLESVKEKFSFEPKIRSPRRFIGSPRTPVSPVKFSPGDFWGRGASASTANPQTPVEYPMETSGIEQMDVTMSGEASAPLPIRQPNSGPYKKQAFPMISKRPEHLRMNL

Row | Compound | IC50 [nM]
1 | Nc1ncnc(N2CCN(Cc3cc(Cl)c(Cl)cc3OC3CNC3)CC2)c1-c1ccc(F)cc1 [Example 62, 6-(4-(2-(azetidin-3-yloxy)-4,5-dichlorobenzyl)piperazin-1-yl)-5-(4-fluorophenyl)pyrimidin-4-amine] | 980
2 | NCC(c1ccc(C(F)(F)F)cc1)N1CCN(c2ncnc(N)c2-c2cnoc2)CC1 (stereo not shown) [Example 38, 6-(4-(2-amino-1-(4-(trifluoromethyl)phenyl)ethyl)piperazin-1-yl)-5-(isoxazol-4-yl)pyrimidin-4-amine] | 100
3 | N#CC(c1ccc(C(F)(F)F)nc1)N1CCN(c2ncnc(N)c2-c2ccc(F)cc2)CC1 (stereo not shown) [Example 189, {4-[6-Amino-5-(4-fluoro-phenyl)-pyrimidin-4-yl]-piperazin-1-yl}-(6-trifluoromethyl-pyridin-3-yl)-acetonitrile] | 140
4 | COc1ccc([C@H](CCO)NC(=O)C2(N)CCN(c3ncnc(N)c3C#N)CC2)cc1 [Example 229, 4-Amino-1-(6-amino-5-cyano-pyrimidin-4-yl)-piperidine-4-carboxylic acid [(S)-3-hydroxy-1-(4-methoxy-phenyl)-propyl]-amide] | 450
5 | NCC(c1ccc(F)c(Cl)c1)N1CCN(c2ncnc(N)c2-c2ccc(F)cc2)CC1 (stereo not shown) [Example 161, 6-{4-[2-Amino-1-(3-chloro-4-fluoro-phenyl)-ethyl]-piperazin-1-yl}-5-(4-fluoro-phenyl)-pyrimidin-4-ylamine] | 4
6 | N#Cc1ccc(-c2c(N)ncnc2N2CCC(N)(CNC(=O)c3ccc(F)cc3F)C2)cc1 (stereo not shown) [Example 199, N-{3-Amino-1-[6-amino-5-(4-cyano-phenyl)-pyrimidin-4-yl]-pyrrolidin-3-ylmethyl}-2,4-difluoro-benzamide] | 11
7 | Nc1ncnc(N2CCC(N)(CNC(=O)c3ccc(F)cc3F)C2)c1-c1ccc(F)cc1 (stereo not shown) [Example 198, N-{3-Amino-1-[6-amino-5-(4-fluoro-phenyl)-pyrimidin-4-yl]-pyrrolidin-3-ylmethyl}-2,4-difluoro-benzamide] | 4.8
8 | NCC(c1ccc(Cl)cc1)N1CCN(c2ncnc(N)c2-c2ccc(F)cc2)CC1 (stereo not shown) [Example 163, 6-{4-[2-Amino-1-(4-chloro-phenyl)-ethyl]-piperazin-1-yl}-5-(4-fluoro-phenyl)-pyrimidin-4-ylamine] | 1.3
9 | NCC(c1ccccc1)N1CCN(c2ncnc(N)c2-c2ccc(F)cc2)CC1 (stereo not shown) [Example 6, 6-[4-(2-Amino-1-phenyl-ethyl)-piperazin-1-yl]-5-(4-fluoro-phenyl)-pyrimidin-4-ylamine] | 6.3
10 | N#Cc1ccc(C(CN2CCC2)N2CCN(c3ncnc(N)c3-c3cn[nH]c3)CC2)cc1 (single isomer, unassigned) [Example 85, 4-(1-{4-[6-Amino-5-(1H-pyrazol-4-yl)-pyrimidin-4-yl]-piperazin-1-yl}-2-azetidin-1-yl-ethyl)-benzonitrile] | 2800
11 | CCc1c(N)ncnc1N1CCN([C@H](CN)c2ccc(Cl)cc2)CC1 [Example 179, 6-{4-[(S)-2-Amino-1-(4-chloro-phenyl)-ethyl]-piperazin-1-yl}-5-ethyl-pyrimidin-4-ylamine] | 13
12 | CC[C@H](NC(=O)C1(N)CCN(c2ncnc(N)c2C#N)CC1)c1ccc(Cl)cc1 [Example 219, 4-Amino-1-(6-amino-5-cyano-pyrimidin-4-yl)-piperidine-4-carboxylic acid [(S)-1-(4-chloro-phenyl)-propyl]-amide] | 140
13 | NC[C@H](c1ccc(Cl)nc1)N1CCN(c2ncnc(N)c2-c2ccc(F)cc2)CC1 [Example 176, 6-{4-[(S)-2-Amino-1-(6-chloro-pyridin-3-yl)-ethyl]-piperazin-1-yl}-5-(4-fluoro-phenyl)-pyrimidin-4-ylamine] | 0.8
14 | Nc1ncnc(N2CCN(C(CN3CCC3)c3cccc(F)c3F)CC2)c1-c1cn[nH]c1 (stereo not shown) [Example 124, 6-{4-[2-Azetidin-1-yl-1-(2,3-difluoro-phenyl)-ethyl]-piperazin-1-yl}-5-(1H-pyrazol-4-yl)-pyrimidin-4-ylamine] | 3400
15 | CN(C)CC(c1ccc(C(F)(F)F)cc1)N1CCN(c2ncnc(N)c2-c2ccc(F)cc2)CC1 (stereo not shown) [Example 15, 6-(4-(2-(dimethylamino)-1-(4-(trifluoromethyl)phenyl)ethyl)piperazin-1-yl)-5-(4-fluorophenyl)pyrimidin-4-amine] | 4.9
16 | Cc1ccc(C(CN2CCC2)N2CCN(c3ncnc(N)c3-c3cn[nH]c3)CC2)c(F)c1F (stereo not shown) [Example 100, 6-{4-[2-Azetidin-1-yl-1-(2,3-difluoro-4-methyl-phenyl)-ethyl]-piperazin-1-yl}-5-(1H-pyrazol-4-yl)-pyrimidin-4-ylamine] | 900
17 | COC(=O)c1ccc([C@H](CN2CCC2)N2CCN(c3ncnc(N)c3-c3ccc(F)cc3)CC2)cc1 [Example 111, 4-((R)-1-{4-[6-Amino-5-(4-fluoro-phenyl)-pyrimidin-4-yl]-piperazin-1-yl}-2-azetidin-1-yl-ethyl)-benzoic acid methyl ester] | 190

Row | Compound | IC50 [nM]
18 | Nc1ncnc(N2CCN(C(CN3CCCCC3)c3ccc(F)cc3)CC2)c1Br (stereo not shown) [Example 72, 5-Bromo-6{4-[1-(4-fluoro-phenyl)-2-piperidin-1-yl-ethyl]-piperazin-1-yl}-pyrimidin-4-ylamine] | > 1000
19 | Nc1ncnc(N2CCC(N)(CNC(=O)c3ccc(F)cc3F)C2)c1-c1ccccc1 (stereo not shown) [Example 203, N-[3-Amino-1-(6-amino-5-phenyl-pyrimidin-4-yl)-pyrrolidin-3-ylmethyl]-2,4-difluoro-benzamide] | 5.3
20 | NCC(c1ccc(C(F)(F)F)cc1)N1CCN(c2ncnc(N)c2Cl)CC1 (stereo not shown) [Example 80, 6-{4-[2-Amino-1-(4-trifluoromethyl-phenyl)-ethyl]-piperazin-1-yl}-5-chloro-pyrimidin-4-ylamine] | 79
21 | NCC(c1ccc(C(F)(F)F)cc1)N1CCN(c2ncnc(N)c2OCc2ccccc2)CC1 (stereo not shown) [Example 34, 6-(4-(2-amino-1-(4-(trifluoromethyl)phenyl)ethyl)piperazin-1-yl)-5-(benzyloxy)pyrimidin-4-amine] | 57
22 | N#CC(c1ccc(Cl)nc1)N1CCN(c2ncnc(N)c2-c2ccc(F)cc2)CC1 (stereo not shown) [Example 173, {4-[6-Amino-5-(4-fluoro-phenyl)-pyrimidin-4-yl]-piperazin-1-yl}-(6-chloro-pyridin-3-yl)-acetonitrile] | 110
23 | COC(=O)c1ccc(C(CN2CCC2)N2CCN(c3ncnc(N)c3-c3cn[nH]c3)CC2)cc1 (single isomer, unassigned) [Example 86, 4-(1-{4-[6-Amino-5-(1H-pyrazol-4-yl)-pyrimidin-4-yl]-piperazin-1-yl}-2-azetidin-1-yl-ethyl)-benzoic acid methyl ester] | 6400
24 | CCc1c(N)ncnc1N1CCC(N)(C(=O)N[C@@H](CCO)c2ccc(Cl)cc2)CC1 [Example 214, 4-Amino-1-(6-amino-5-ethyl-pyrimidin-4-yl)-piperidine-4-carboxylic acid [(S)-1-(4-chloro-phenyl)-3-hydroxy-propyl]-amide] | 450
25 | Nc1ncnc(N2CCN([C@H](CN3CCC3)c3ccc4c(c3)OCCO4)CC2)c1-c1ccc(F)cc1 [Example 98, 6-{4-[(S)-2-Azetidin-1-yl-1-(2,3-dihydro-benzo[1,4]dioxin-6-yl)-ethyl]-piperazin-1-yl}-5-(4-fluoro-phenyl)-pyrimidin-4-ylamine] | 260
26 | CN(C)CCNC(c1ccc(F)cc1)C1CCN(c2ncnc(N)c2-c2ccc(F)cc2)CC1 (stereo not shown) [Example 150, 1-(6-amino-5-(4-fluorophenyl)pyrimidin-4-yl)(4-((4-fluorophenyl))methyl)-dimethylethane-1,2-diamine] | 33
27 | COC(=O)c1ccc([C@@H](CN2CCC2)N2CCN(c3ncnc(N)c3-c3cn[nH]c3)CC2)cc1 [Example 89, 4-((S)-1-{4-[6-Amino-5-(1H-pyrazol-4-yl)-pyrimidin-4-yl]-piperazin-1-yl}-2-azetidin-1-yl-ethyl)-benzoic acid methyl ester] | 2700
28 | Nc1ncnc(N2CCN(Cc3ccc(C(F)(F)F)cc3)CC2)c1-c1ccc(F)cc1 [Example 13, 5-(4-Fluoro-phenyl)-6-[4-(4-trifluoromethyl-benzyl)-piperazin-1-yl]-pyrimidin-4-ylamine] | 7.2
29 | NCC(c1ccc(C(F)(F)F)cc1)C1CCN(c2ncnc(N)c2Br)CC1 (stereo not shown) [Example 51, 6-{4-[2-Amino-1-(4-trifluoromethyl-phenyl)-ethyl]-piperidin-1-yl}-5-bromo-pyrimidin-4-ylamine] | 41
30 | Nc1cc(N2CCN(C(CN3CCCCC3)c3ccc(F)cc3)CC2)ncn1 (stereo not shown) [Example 79, 6-{4-[1-(4-fluoro-phenyl)-2-piperidin-1-yl-ethyl]-piperazin-1-yl}-pyrimidin-4-ylamine] | > 1000
31 | CS(=O)(=O)c1ccc(C(CN)N2CCN(c3ncnc(N)c3-c3cn[nH]c3)CC2)cc1 (stereo not shown) [Example 185, 6-(4-(2-amino-1-(4-(methylsulfonyl)phenyl)ethyl)piperazin-1-yl)-5-(1H-pyrazol-4-yl)pyrimidin-4-amine] | 60
32 | Nc1ncnc(N2CCN(C(CN3CCC3)c3ccc(F)c(Cl)c3)CC2)c1-c1cn[nH]c1 (stereo not shown) [Example 135, 6-{4-[2-Azetidin-1-yl-1-(3-chloro-4-fluoro-phenyl)-ethyl]-piperazin-1-yl}-5-(1H-pyrazol-4-yl)-pyrimidin-4-ylamine] | 3600
33 | Nc1ncnc(N2CCN(C(CN3CCC3)c3ccc(C(F)(F)F)cc3F)CC2)c1-c1cn[nH]c1 (stereo not shown) [Example 120, 6-{4-[2-Azetidin-1-yl-1-(2-fluoro-4-trifluoromethyl-phenyl)-ethyl]-piperazin-1-yl}-5-(1H-pyrazol-4-yl)-pyrimidin-4-ylamine] | 1100
34 | N#Cc1ccc(C(CN2CCC2)N2CCN(c3ncnc(N)c3-c3ccc(F)cc3)CC2)cc1 (stereo not shown) [Example 106, 4-(1-{4-[6-Amino-5-(4-fluoro-phenyl)-pyrimidin-4-yl]-piperazin-1-yl}-2-azetidin-1-yl-ethyl)-benzonitrile] | 320
